Experimental data reported in article PMC9601193, “Intracellular Metabolomics Identifies Efflux Transporter Inhibitors in a Routine Caco-2 Cell Permeability Assay—Biological Implications” (Cells, 2022).
Values belong to the molecule of their own block, whether it stands above or below them.

Experiments:
[1] = target: T1, Pgp (Homo sapiens, UniProt P08183); test: Caco-2 bidirectional transport of Pgp probe indinavir with/without inhibitor or in Pgp KO cells; format: cell-based; conditions: for specificity of Pgp inhibition among Pgp, BCRP and MRP2 (functional experiments): zosuquidar 10 µM, valspodar 50 nM
T1 construct: express major uptake and efflux transporters on the apical and basal membranes, including the key efflux transporters Pgp, BCRP and MRP2; host or cells: Caco-2 (HTB-37); C2BBe1 clone WT/KO cells from SOLVO Biotechnology for the knockout comparisons
Method: (§1) The compounds were first added into either the apical or basolateral chamber in the absence or presence of the relevant inhibitor. After 2 h incubation with the compounds, the samples from the apical and basolateral chamber were collected.
(§2) For Pgp and BCRP functional analysis, a 75 µL aliquot of the samples was collected from both the donor and acceptor compartments and transferred to a new 96-well microplate (V bottom) containing 75 µL of methanol. 10 µL from the mixture was collected and transferred to a new plate containing 90 µL of 50:50 methanol/water. The concentration of probe substrates in the samples was then quantified using LC-MS.
The flow rate was 0.6 mL/min, and the total run time was 3.5 min. The sample injection volume was 2 μL. Sample data were acquired using Analyst software.
(§3) The apparent permeability (Papp) of the substrate was calculated as follows: • Papp = (dQ/dt)/(C0 × Vr A) • dQ/dt = slope of the linear portion of the permeated amount versus time curve (µmol/l/s) • A = effective surface area of the Transwell insert (0.11 cm^2) • C0 = initial concentration of the substrate (µmol/L) • Vr = the volume of the receiver chamber (mL).
(§4) The efflux ratio was calculated as follows: • Papp (B to A)/Papp (A to B)
(§5) Pgp, BCRP and MRP2 knockout (stable) Caco-2 cells (C2BBe1) were kindly provided by SOLVO Biotechnology (Szeged, Hungary). The individual transporters were knocked out using zinc finger nuclease technology. The knockout cell lines were cultured for 21 days except BCRP KO, which was grown for 25 days in a 96-well format. Assay conditions were in accordance with the Caco-2 assay from our lab. Transport analysis was performed according to the protocol described above. After transport experiments, metabolites were extracted from Caco-2 cells and analyzed according to the protocols described below.

[2] = target: T2, MRP2 (Homo sapiens, UniProt Q92887); test: Caco-2 efflux of MRP2 probe CDCF (fluorescence) with/without inhibitor or in MRP2 KO cells; format: cell-based; conditions: for specificity of MRP2 inhibitors (functional assessment, Supplementary Table S1): Caco-2
T2 construct: express major uptake and efflux transporters on the apical and basal membranes, including the key efflux transporters Pgp, BCRP and MRP2; host or cells: Caco-2 (HTB-37); C2BBe1 clone WT/KO cells from SOLVO Biotechnology for the knockout comparisons
Method: as §1
For MRP2 functional analysis, CDCF-DA (non-fluorescent diacetate), was added on the apical or basal chamber which diffuses into the cells and is converted into fluorescent CDCF (MRP2 substrate) by intracellular esterases. Efflux of the fluorescent CDCF was monitored by transferring 75 μL of samples from both the donor and acceptor compartments to a clear-bottomed black 96-well plate. The CDCF fluorescence was then measured on the plate reader with 485 (exc)/528 (em) nm wavelength.
as §3, §4, §5

[3] = target: T2, MRP2; test: Intracellular LC-MS metabolomic signature and inhibition score for MRP2 in Caco-2 cells; format: cell-based
Method: (§6) Samples were dried using a nitrogen evaporator.
(§7) The sample injection volume was 2 μL. Sample data were acquired using Analyst software. All the samples were randomized to avoid analytical bias.

[4] = system: MTHFR; test: Protein expression by Simple Western (WES/JESS) in Caco-2 cells: MTHFR; format: cell-based, human; conditions: 24 h; zosuquidar 5 µM, Ko143 10 µM, MK571 200 µM; normalized to vinculin
Method: (§8) Cells were grown in a 6-well plate for 48 h and in a transwell for 10 days. Cells in the 6-well plates were incubated with inhibitors for 24 h and the cells in the transwell plate were incubated with inhibitors for 2 h to replicate metabolic effects. Protein extraction was performed once the cells were 90% confluent. Lysis buffer solution was prepared by adding 200 µL of phosphatase inhibitor cocktail 2 and 3 (Sigma-Aldrich, Dorset, UK), 100 µL of 100 mM PMSF protease inhibitor and 1 mL of CST lysis buffer (Cell Signaling Technology, Danvers, MA, USA) to 8.5 mls of deionized water. In the 6-well plate, cells were washed twice with ice-cold PBS, lysed with 500 μL of cold lysis buffer and transferred to Eppendorf tubes. The KO cells were lysed immediately after being taken out of the liquid nitrogen stock. […] The total protein concentration of the lysate was determined using Direct Detect™ infrared (IR)-based quantification system. […]
(§9) Different loading controls were used, depending on molecular weight and relative intensities of signal, and conditions were optimized accordingly. Protein samples were analyzed on a JESS/WES® (Simple Western system, Bio-Techne, Abingdon, UK) according to the manufacturer’s instructions (Protein Simple, Bio-Techne, Abingdon, UK) using a 12–230 kDa separation module. […]

[5] = system: thymidylate synthase; test: Protein expression by Simple Western (WES/JESS) in Caco-2 cells: thymidylate synthase; format: cell-based, human; conditions: 24 h incubation; zosuquidar 5 µM, MK571 200 µM
Method: as §8, §9

[6] = system: Adenosylhomocysteinase (AHCY); test: Protein expression by Simple Western (WES/JESS) in Caco-2 cells: AHCY; format: cell-based, human; conditions: 2 and 24 h incubation; MK571 200 µM
Method: as §8, §9

[7] = system: Serine Hydroxymethyltransferase 1 (SHMT1); test: Protein expression by Simple Western (WES/JESS) in Caco-2 cells: SHMT1; format: cell-based, human; conditions: 2 and 24 h; MK571 200 µM
Method: as §8, §9

[8] = target: T3, BCRP (Homo sapiens, UniProt Q9UNQ0); test: Intracellular LC-MS metabolomic signature and inhibition score for BCRP in Caco-2 cells; conditions: Ko143 10 µM, Fumitremorgin C 5 µM, novobiocin 30 µM; Caco-2, 2 h
T3 sequence (Q9UNQ0 1-655): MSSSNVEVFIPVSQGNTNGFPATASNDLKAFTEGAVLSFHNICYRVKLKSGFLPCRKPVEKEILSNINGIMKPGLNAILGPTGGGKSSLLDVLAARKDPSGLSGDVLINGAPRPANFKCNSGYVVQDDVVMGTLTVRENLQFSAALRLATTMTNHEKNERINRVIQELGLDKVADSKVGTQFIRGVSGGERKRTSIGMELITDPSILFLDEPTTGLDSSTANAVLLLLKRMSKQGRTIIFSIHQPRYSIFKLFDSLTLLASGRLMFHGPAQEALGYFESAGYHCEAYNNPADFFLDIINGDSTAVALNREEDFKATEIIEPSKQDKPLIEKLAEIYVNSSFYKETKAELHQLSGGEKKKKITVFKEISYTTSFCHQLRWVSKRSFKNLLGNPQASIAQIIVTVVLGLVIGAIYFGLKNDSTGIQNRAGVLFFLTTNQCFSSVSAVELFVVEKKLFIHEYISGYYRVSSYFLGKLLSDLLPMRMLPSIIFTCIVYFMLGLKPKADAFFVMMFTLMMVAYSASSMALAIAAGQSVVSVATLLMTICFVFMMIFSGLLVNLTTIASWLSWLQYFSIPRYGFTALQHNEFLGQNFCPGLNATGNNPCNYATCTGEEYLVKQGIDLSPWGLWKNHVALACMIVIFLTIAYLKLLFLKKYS
Method: First, 2 × 10^4 cells/well were seeded on a 96 Transwell™ thin film polycarbonate membrane (0.4 µM pore size). Plates were incubated at 37 °C, 5% CO2 and 95% humidity. The cells were grown for 10 days and then treated on day 10. The monolayer integrity was checked prior to the experiment by measuring the transepithelial electrical resistance (TEER) using a TEER electrode. All TEER values ranged between 2000 and 4000 ohms∗cm^2, values greater than 1000 ohms∗cm^2 were used as an indicator of an intact monolayer.
MK571 (200 µM, n = 3) and Benzbromarone (66.7 µM, n= 1) were used to inhibit MRP2 activity. The compounds were diluted to the final concentration in HBSS (pH 7.4); 1% DMSO in HBSS was used as a control. Before treatment, media was removed, and the cells were washed twice with HBSS. […]
MultiQuant® software (v 3.0.3) was used for peak integration and the peak area for each metabolite was then exported. All data sets were normalized using the total sum of the quantified analyte area. The data were analyzed by SIMCA® 15/17 for multivariate analysis including Orthogonal Partial Least Squares–Discriminant Analysis (OPLS-DA). […]
The percentage difference for the normalized area of each (transporter) signature metabolite was calculated using the following equation:100 × (treated—control)/control

[9] = target: T3, BCRP; test: Caco-2 bidirectional transport of BCRP probe estrone-3-sulfate with/without inhibitor or in BCRP KO cells; format: cell-based; parameters: express major uptake and efflux transporters on the apical and basal membranes, including the key efflux transporters Pgp, BCRP and MRP2; host or cells: Caco-2 (HTB-37); C2BBe1 clone WT/KO cells from SOLVO Biotechnology for the knockout comparisons; conditions: C2BBe1 Caco-2 BCRP KO vs WT
Method: as §1, §2
The flow rate was 0.6 mL/min, and the total run time was 3.5 min. […]
as §3, §4
Pgp, BCRP and MRP2 knockout (stable) Caco-2 cells (C2BBe1) were kindly provided by SOLVO Biotechnology (Szeged, Hungary). […] After transport experiments, metabolites were extracted from Caco-2 cells and analyzed according to the protocols described below.

[10] = target: T1, Pgp; test: Intracellular LC-MS metabolomic signature and inhibition score for Pgp in Caco-2 cells; format: cell-based; conditions: some of the metabolites
Method: as §6, §7
For example, for Pgp, the percentage changes in Pgp signature metabolites with Pgp inhibition were summed to calculate a Pgp inhibition score for that inhibitor.

[11] = system: methionine synthase; test: Protein expression by Simple Western (WES/JESS) in Caco-2 cells: methionine synthase; format: cell-based, human; conditions: 2 and 24 h incubation; zosuquidar 5 µM
Method: as §8, §9

[12] = parameters: method as in PMID 33312947; conditions: trials testing efficacy against multidrug resistance; cited from earlier work

T2 sequence (Q92887 whole entry): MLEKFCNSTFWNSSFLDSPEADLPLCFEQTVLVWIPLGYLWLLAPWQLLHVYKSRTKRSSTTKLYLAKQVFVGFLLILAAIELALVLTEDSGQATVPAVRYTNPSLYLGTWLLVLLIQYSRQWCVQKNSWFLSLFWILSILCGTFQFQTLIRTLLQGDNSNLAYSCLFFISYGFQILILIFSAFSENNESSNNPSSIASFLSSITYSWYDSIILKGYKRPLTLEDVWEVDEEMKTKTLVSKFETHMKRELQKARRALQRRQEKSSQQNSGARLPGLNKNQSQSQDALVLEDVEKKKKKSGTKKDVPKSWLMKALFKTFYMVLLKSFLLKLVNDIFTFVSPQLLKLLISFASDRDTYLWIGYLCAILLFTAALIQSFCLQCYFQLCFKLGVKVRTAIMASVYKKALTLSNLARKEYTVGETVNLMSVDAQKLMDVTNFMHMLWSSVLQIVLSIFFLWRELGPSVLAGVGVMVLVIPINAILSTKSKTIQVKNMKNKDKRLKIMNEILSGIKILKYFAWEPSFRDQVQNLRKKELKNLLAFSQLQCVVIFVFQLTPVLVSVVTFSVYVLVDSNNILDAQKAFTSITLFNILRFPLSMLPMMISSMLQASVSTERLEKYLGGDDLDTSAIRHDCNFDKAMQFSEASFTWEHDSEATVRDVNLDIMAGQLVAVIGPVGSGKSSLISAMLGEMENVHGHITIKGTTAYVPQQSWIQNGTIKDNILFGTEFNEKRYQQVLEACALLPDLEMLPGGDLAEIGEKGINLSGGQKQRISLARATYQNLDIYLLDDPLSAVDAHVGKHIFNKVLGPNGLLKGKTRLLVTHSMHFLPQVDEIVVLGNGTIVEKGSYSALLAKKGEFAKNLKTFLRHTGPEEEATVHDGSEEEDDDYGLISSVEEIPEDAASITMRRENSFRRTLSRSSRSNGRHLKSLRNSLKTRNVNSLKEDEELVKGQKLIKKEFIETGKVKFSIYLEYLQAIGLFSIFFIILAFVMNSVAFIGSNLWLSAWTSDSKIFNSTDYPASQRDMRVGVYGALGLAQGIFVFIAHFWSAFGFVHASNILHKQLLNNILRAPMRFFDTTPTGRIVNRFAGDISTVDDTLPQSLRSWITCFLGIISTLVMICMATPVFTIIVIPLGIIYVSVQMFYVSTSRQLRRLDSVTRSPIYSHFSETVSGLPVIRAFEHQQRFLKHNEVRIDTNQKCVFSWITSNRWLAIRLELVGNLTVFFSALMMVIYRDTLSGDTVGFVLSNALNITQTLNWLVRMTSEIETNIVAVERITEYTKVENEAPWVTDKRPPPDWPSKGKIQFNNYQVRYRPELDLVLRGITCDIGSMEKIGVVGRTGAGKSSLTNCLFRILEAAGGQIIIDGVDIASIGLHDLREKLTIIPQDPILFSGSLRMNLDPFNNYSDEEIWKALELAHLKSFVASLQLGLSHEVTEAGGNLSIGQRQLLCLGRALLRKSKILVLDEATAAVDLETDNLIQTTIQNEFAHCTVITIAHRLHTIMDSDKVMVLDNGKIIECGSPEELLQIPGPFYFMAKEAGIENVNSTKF
T1 sequence (P08183 whole entry): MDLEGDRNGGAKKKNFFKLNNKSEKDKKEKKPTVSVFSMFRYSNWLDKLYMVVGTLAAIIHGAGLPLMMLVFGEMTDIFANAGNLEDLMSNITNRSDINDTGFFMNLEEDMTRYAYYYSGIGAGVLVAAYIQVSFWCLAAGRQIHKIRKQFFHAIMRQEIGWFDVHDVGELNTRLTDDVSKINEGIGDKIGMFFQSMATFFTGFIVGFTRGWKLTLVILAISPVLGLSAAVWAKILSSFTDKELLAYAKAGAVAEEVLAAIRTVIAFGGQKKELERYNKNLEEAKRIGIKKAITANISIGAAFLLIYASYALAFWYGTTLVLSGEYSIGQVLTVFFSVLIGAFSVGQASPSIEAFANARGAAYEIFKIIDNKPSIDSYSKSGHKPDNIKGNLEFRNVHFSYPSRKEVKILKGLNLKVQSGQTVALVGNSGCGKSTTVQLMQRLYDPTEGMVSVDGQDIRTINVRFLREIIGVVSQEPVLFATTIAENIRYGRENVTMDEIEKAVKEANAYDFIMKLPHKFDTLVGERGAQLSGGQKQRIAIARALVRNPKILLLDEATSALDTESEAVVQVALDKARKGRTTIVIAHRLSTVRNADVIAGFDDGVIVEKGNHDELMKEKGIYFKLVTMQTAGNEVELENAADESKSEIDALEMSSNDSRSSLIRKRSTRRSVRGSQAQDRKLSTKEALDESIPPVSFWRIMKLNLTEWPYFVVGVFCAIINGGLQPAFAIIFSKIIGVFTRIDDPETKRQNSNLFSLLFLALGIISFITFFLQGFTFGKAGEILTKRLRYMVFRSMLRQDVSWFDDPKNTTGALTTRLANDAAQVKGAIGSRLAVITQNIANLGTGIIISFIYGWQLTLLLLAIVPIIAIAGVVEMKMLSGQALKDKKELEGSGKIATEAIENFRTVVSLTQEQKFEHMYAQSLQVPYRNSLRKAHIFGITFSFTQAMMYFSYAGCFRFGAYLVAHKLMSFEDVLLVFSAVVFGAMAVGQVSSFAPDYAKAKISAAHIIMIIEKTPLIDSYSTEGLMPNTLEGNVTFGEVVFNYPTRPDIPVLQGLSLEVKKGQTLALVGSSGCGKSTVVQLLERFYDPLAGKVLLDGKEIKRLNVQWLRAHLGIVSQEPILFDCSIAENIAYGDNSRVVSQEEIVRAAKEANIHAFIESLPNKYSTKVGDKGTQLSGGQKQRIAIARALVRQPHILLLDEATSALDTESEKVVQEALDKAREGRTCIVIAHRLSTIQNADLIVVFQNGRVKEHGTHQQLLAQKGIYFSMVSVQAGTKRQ

Molecule: 5(6)-carboxy-2′,7′-dichlorofluorescein [CDCF]
efflux ratio in MRP2 KO cells in comparison with wild type cells ([2]; C2BBe1 Caco-2 MRP2 KO vs WT): reduced

Molecule: CN(C)C(=O)CCSC(SCCC(=O)O)c1cccc(/C=C/c2ccc3ccc(Cl)cc3n2)c1 (stereo not drawn) [MK571]
specificity of MRP2 inhibitors (functional assessment, Supplementary Table S1) [2]: lack of specificity
CDCF efflux in presence of inhibitor ([2]; Caco-2 monolayer, CDCF 10 µM, 2 h): markedly reduced
change of MRP2 signature metabolites with increasing inhibitor concentration [3]: concentration-dependent change
MTHFR protein expression [4]: significant decrease
thymidylate synthase expression [5]: reduced
Adenosylhomocysteinase (AHCY) protein levels [6]: significantly reduced
Serine Hydroxymethyltransferase 1 (SHMT1) expression [7]: significant reduction

Molecule: COc1ccc2c3c([nH]c2c1)[C@H](C=C(C)C)N1C(=O)[C@@H]2CCCN2C(=O)[C@@H]1C3 [Fumitremorgin C]
intracellular levels of glutamate, hypoxanthine and xanthine [8]: decreased
intracellular pantothenate levels [8]: increased

Molecule: O[C@@H](COc1cccc2ncccc12)CN1CCN([C@@H]2c3ccccc3[C@@H]3[C@H](c4ccccc42)C3(F)F)CC1 [zosuquidar]
transcellular transport of indinavir in presence of inhibitor ([1]; Caco-2 monolayer, indinavir 10 µM, 2 h): inhibited
specificity of Pgp inhibition among Pgp, BCRP and MRP2 (functional experiments) [1]: specifically inhibit Pgp
change of Pgp signature metabolites with increasing inhibitor concentration [10]: concentration dependent change
MTHFR protein expression [4]: increase
thymidylate synthase expression [5]: reduced
methionine synthase expression [11]: increase
toxicity observed in clinical trials [12]: neurotoxicity

Molecule: CCc1oc2ccccc2c1C(=O)c1cc(Br)c(O)c(Br)c1 [benzbromarone, Benzbromarone]
specificity of MRP2 inhibitors (functional assessment, Supplementary Table S1) [2]: lack of specificity

Results, then the molecule that gave them:

specificity of Pgp inhibition among Pgp, BCRP and MRP2 (functional experiments) [1]: specifically inhibit Pgp
Molecule: C/C=C/C[C@@H](C)C(=O)[C@H]1C(=O)N[C@@H](C(C)C)C(=O)N(C)CC(=O)N(C)[C@@H](CC(C)C)C(=O)N[C@@H](C(C)C)C(=O)N(C)[C@@H](CC(C)C)C(=O)N[C@@H](C)C(=O)N[C@H](C)C(=O)N(C)[C@@H](CC(C)C)C(=O)N(C)[C@@H](CC(C)C)C(=O)N(C)[C@@H](C(C)C)C(=O)N1C [valspodar]

Pgp inhibition compared to other additional inhibitors ([1]; validation inhibitors of Figure 5C): weaker interaction with Pgp
Molecule: CN(C)CCCN1c2ccccc2Sc2ccc(Cl)cc21 [chlorpromazine]

efflux ratio in BCRP KO cells in comparison with wild type cells [9]: reduced
Molecule: C[C@]12CC[C@@H]3c4ccc(OS(=O)(=O)O)cc4CC[C@H]3[C@@H]1CCC2=O [estrone-3-sulfate]
